# Read-outs that look alike come from different tables or passages of the source.
# Assays:
# [1] = system: PBM cells; test: Intracellular metabolites (DXG-TP, DAPD-TP) in PBM cells; assay type: in vitro ADME, human; details: for DXG-TP levels: PBM cells incubated for 4 h at 50 µM, mean and S.D.; for intracellular DXG-TP detected (in words) / intracellular phosphorylated DAPD / DAPD-TP detected (in words): PBM cells, 50 μM, 4 h, 37° C.
# Method: Reexamination of the intracellular metabolism of DAPD, which contains a 6-amino group, at 50 μM for 4 h in PBM cells at 37° C. resulted the detection of high levels of DXG-TP in addition to DXG and DXG-MP.
# PBM cells were incubated with the corresponding compounds for 4 h […]. The data plotted represent the mean value and S.D. of experiments with PBM cells.
# [2] = system: HIV-1LAI; test: Anti-HIV (in PBM cells) assay; assay type: cell-based; details: Human immunodeficiency virus 1, PBMC; for EC50: read-out: HIV EC50; for EC90: read-out: HIV EC90
# Method: Stock solutions (20-40 mM) of the compounds were prepared in sterile DMSO and then diluted to the desired concentration in growth medium. Cells were infected with the prototype HIV-1LAI at a multiplicity of infection of 0.01. Virus obtained from the cell supernatant was quantified on day 6 after infection by a reverse transcriptase assay using (rA)n.(dT)12-18 as template-primer. The DMSO present in the diluted solution (<0.1%) had no effect on the virus yield. AZT was included as positive control.
# [3] = system: human PBM cells; test: Cytotoxicity in human PBM cells; assay type: cell-based
# Method: v) Cellular Toxicity Assays: 6-Substituted-2-amino purine dioxolane monophosphate prodrugs were evaluated for their potential toxic effects on P4/R5 cells, MT-2 cells and uninfected PHA-stimulated human PBM cell. Log-phase P4/R5, MT-2, and PHA-stimulated human PBM cells were seeded at 5×10^3 to 5×10^4 cells/well in 96-well cell culture plates containing 10-fold serial dilutions of the test drug. The cultures were incubated for 2-4 days, after which 3-(4,5-dimethylthiazol-2-yl)-2,5-diphenyltetrazolium bromide (MIT) dye solution (Promega, Madison, Wis.) were added to each well and incubated overnight. The reaction was stopped with stop solubilization solution (Promega, Madison, Wis.) and plates were read at a wavelength of 570 nm.
# [4] = system: PHA-stimulated human PBMCs and CEM cells; details: cited from earlier work
# [5] = system: CEM (human lymphoblastoid) cells; test: Cytotoxicity in CEM cells; details: Lymphoblastoid cell, read-out: CEM IC50
# [6] = system: Vero cells; test: Cytotoxicity in Vero cells; details: Chlorocebus sabaeus, read-out: Vero IC50
# [7] = system: adenosine deaminase; test: Adenosine deaminase assay; assay type: biochemical; details: 7 minutes, 0.002 units of enzyme, 50 μM, pH 7.4, 25° C.
# Method: To determine the propensity for deamination of the 6-substituted-2-amino purine dioxolane monophosphate prodrugs by adenosine deaminase, nucleoside compounds were incubated with the commercially available purified enzyme, and the reaction was followed spectrophotometrically. Reaction conditions were 50 mM potassium phosphate, pH 7.4, with 50 μM nucleoside analog in 0.5 mL at 25° C. Reaction time was 7 minutes with 0.002 units of enzyme and 120 minutes with 0.2 units of enzyme. (The unit definition of adenosine deaminase is one unit will deaminate 1.0 μmol of adenosine to inosine per minute at pH 7.5 at 25° C.) Deoxyadenosine was the positive control which was 59% deaminated under the given conditions in 7 minutes with 0.002 units of enzyme. Deoxyguanosine was the negative control. Optical density was measured at 265 nm or 285 nm. The difference in optical density between the beginning and the end of the experiment was divided by the extinction coefficient then multiplied by the volume of the reaction to determine the number of mols of substrate transformed into product. Mols of product were divided by mols of substrate equivalent to a 100% complete reaction then multiplied by 100 to obtain percent deamination. The limit of detection was 0.001 optical density units.
DXG-TP levels [1] [pmol/10^6 cells],SMILES,intracellular DXG-TP detected (in words) [1],intracellular phosphorylated DAPD / DAPD-TP detected (in words) [1],IC50 [5] [µM],IC50 [6] [µM],other results
0.10,Nc1nc(Cl)c2ncn(C3COC(CO)O3)c2n1 (centres unmarked) [6-Cl-DXG],,,,,
0.55,COc1nc(N)nc2c1ncn2C1COC(CO)O1 (centres unmarked) [6-OMe-DXG],,,,,
,Nc1nc(N)c2ncn([C@H]3CO[C@@H](CO)O3)c2n1 [DAPD],high levels,no phosphorylated forms of DAPD were detected,> 100,> 100,"EC50 ([2]; human PBM cells): 1 µM; EC90 ([2]; human PBM cells): 6.5 µM; IC50 ([3]; Homo sapiens, PBMC, cytotoxicity): > 100 µM; DAPD level in PBMCs relative to CEM cells [4]: 27 fold; phosphorylation of DAPD to mono-, di-, or triphosphate forms ([4]; either cell type): No phosphorylation"
1.75 ± 0.07,"Nc1nc2c(ncn2[C@H]2CO[C@@H](CO)O2)c(=O)[nH]1 [DXG, (−)-β-D-dioxolane guanine]",,,,,
,Nc1ncnc2c1ncn2[C@H]1C[C@H](O)[C@@H](CO)O1 [Deoxyadenosine],,,,,percent deaminated by adenosine deaminase [7]: 59%
,CCOC(=O)[C@H](C)NP(=O)(OC[C@@H]1OC[C@H](n2cnc3c(N)nc(N)nc32)O1)Oc1ccccc1 (some centres unmarked) [RS-864],low levels,very high levels,> 100,> 100,EC50 [2]: 0.24 µM; EC90 [2]: 1.3 µM; PBM IC50 (printed as % @ 100 μM) ([3]; @ 100 μM): 66.5%

# Source: patent US20120142627A1, “MONOPHOSPHATE PRODRUGS OF DAPD AND ANALOGS THEREOF” (Emory University, priority 2010, published 2012)
